Laboratory results reported in patent publication US11472798B2 (Mission Therapeutics Limited, priority 2014, dated 2022).

target: T1, UCHL1 (Homo sapiens, UniProt P09936); experiment: UCHL1 biochemical IC50 assay (fluorescence polarisation); settings: 30 min enzyme/compound pre-incubation at room temp, read after 2 hr incubation, read-out: Activity range (UCHL1 biochemical IC50 assay)
T1 construct: made in house; host or cells: HEK293T
T1 sequence (P09936 1-223): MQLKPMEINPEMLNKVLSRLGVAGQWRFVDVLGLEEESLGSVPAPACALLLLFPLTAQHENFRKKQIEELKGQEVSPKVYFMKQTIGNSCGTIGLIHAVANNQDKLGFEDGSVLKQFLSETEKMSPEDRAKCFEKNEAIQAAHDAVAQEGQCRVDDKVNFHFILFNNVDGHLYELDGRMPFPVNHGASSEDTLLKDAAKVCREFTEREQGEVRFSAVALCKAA
Text: Biological Activity of Compounds of the Invention Abbreviations: TAMRA carboxytetramethylrhodamine PCR polymerase chain reaction PBS phosphate buffered saline EDTA ethylenediaminetetraacetic acid Tris 2-amino-2-(hydroxymethyl)-1,3-propanediol NP-40 Nonidet P-40, octylphenoxypolyethoxyethanol BSA bovine serum albumin In Vitro UCHL1 Inhibition Assay Expression and Purification of UCHL1
The UCHL1 construct was PCR amplified and cloned into a pFLAG-CMV-6a vector (Sigma-Aldrich) with an N-terminal FLAG tag. HEK293T cells were transfected with FLAG-UCHL1 using TransIT-LT1 transfection reagent (Mirus) according to the manufacturer's instructions. Cells were harvested 40 hours after transfection. Cells were washed once with PBS and scraped in lysis buffer (50 mM Tris, pH 7.5, 150 mM NaCl, 3 mM EDTA, 0.5% NP40, 10% glycerol, 5 mM beta-mercaptoethanol, protease inhibitors (complete mini, Roche) and phosphatase inhibitors (PhosSTOP mini, Roche). Lysates were incubated for 30 min on ice and centrifuged at 1200 rpm for 10 min at 4° C. Soluble supernatant was added to FLAG affinity resin (EZview Rad ANTI-FLAG M2 affinity gel, Sigma-Aldrich) equilibrated in low salt buffer (20 mM Tris, pH 7.5, 150 mM NaCl, 0.5 mM EDTA, 5 mM beta-mercaptoethanol) and incubated at 4° C. for 3 hours rotating. The resin was spun at 2000 rpm for 2 min and the supernatant was removed. The resin was washed two times with low salt buffer and one time with high salt buffer (20 mM Tris, pH 7.5, 500 mM NaCl, 0.5 mM EDTA, 5 mM beta-mercaptoethanol, protease inhibitors (complete mini, Roche) and phosphatase inhibitors (PhosSTOP mini, Roche). To elute the bound UCHL1, elution buffer (10 mM Tris, pH 7.5, 150 mM NaCl, 0.5 mM FDTA, 10% glycerol, 0.5% NP40, 5 mM beta-mercaptoethanol, 0.15 mg/ml 3×FLAG peptide (Sigma-Aldrich)) was added to the resin and incubated at 4° C. for 2.5 hours rotating. The resin was centrifuged at 4000 rpm for 30 seconds, and the supernatant containing purified FLAG-UCHL1 was removed and stored at −80° C.
UCHL1 Biochemical IC50 Assay
Dilution plates were prepared at 21 times the final concentration (2100 μM for a final concentration of 100 µM) in 50% DMSO in a 96-well polypropylene V-bottom plate (Greiner #651201). A typical 8-point dilution series to be 100, 30, 10, 3, 1, 0.3, 0.1, 0.03 μM final. Reactions were performed in duplicate in black 384 well plates (small volume, Greiner 784076) in a final reaction volume of 21 μl. Either 1 μl of 50% DMSO or diluted compound was added to the plate. UCHL1 was diluted in reaction buffer (20 mM Tris, pH 7.5, 100 mM NaCl, 0.05% Tween 20, 0.5 mg/ml BSA, 5 mM—beta mercaptoethanol) to the equivalent of 0.05 μl/well and 10 μl of diluted UCHL1 was added to the compound. Enzyme and compound were incubated for 30 min at room temp. Reactions were initiated by the addition of 50 nM of TAMRA labelled peptide linked to ubiquitin via an iso-peptide bond as fluorescence polarisation substrate. Reactions were read immediately after addition of substrate and following a 2 hr incubation at room temperature. Readings were performed on a Pherastar Plus (BMG Labtech). λ Excitation 540 nm; k Emission 590 nm.

First: N#CN1CC[C@H](C(=O)Nc2nc3c(Br)cccc3s2)C1 [Example 48, (S)-N-(4-bromobenzo[d]thiazol-2-yl)-1-cyano-pyrrolidine-3-carboxamide]
Second: N#CN1CC[C@H](C(=O)Nc2nc3ccc(-n4ccnn4)cc3s2)C1 [Example 62, (S)-N-(6-(1H-1,2,3-triazol-1-yl)benzo[d]thiazol-2-yl)-1-cyano-pyrrolidine-3-carboxamide]
The IC50 of the first is higher: 1000 to 10000 nM for the first, under 1000 nM for the second.

N#CN1CC[C@H](C(=O)Nc2cn3ccccc3n2)C1 [Example 49, (S)-1-cyano-N-N-(imidazo[1,2-a]pyridin-2-yl)-pyrrolidine-3-carboxamide] and N#CN1CC[C@H](C(=O)Nc2cn3ccc(Br)cc3n2)C1 [Example 50, (S)-N-(7-bromoimidazo[1,2-a]pyridin-2-yl)-1-cyano-pyrrolidine-3-carboxamide] fall in the same range of IC50: 1000 to 10000 nM for the first, 1000 to 10000 nM for the second.

First: N#CN1CC[C@H](C(=O)Nc2cn3cc(Br)ccc3n2)C1 [Example 51, (S)-N-(6-bromoimidazo[1,2-a]pyridin-2-yl)-1-cyano-pyrrolidine-3-carboxamide]
Second: N#CN1CC[C@H](C(=O)Nc2ccc3cccnc3n2)C1 [Example 56, (S)-1-cyano-N-(1,8-naphthyridin-2-yl)pyrrolidine-3-carboxamide]
The IC50 of the first is lower: under 1000 nM for the first, 10000 to 30000 nM for the second.

Compared with COc1ccnc(NC(=O)[C@H]2CCN(C#N)C2)c1 [Example 53, (S)-1-cyano-N-(4-methoxypyridin-2-yl)pyrrolidine-3-carboxamide], Cn1nc(NC(=O)[C@H]2CCN(C#N)C2)cc1-c1ccccc1 [Example 60, (S)-1-cyano-N-(1-methyl-5-phenyl-1H-pyrazol-3-yl)pyrrolidine-3-carboxamide] is lower in IC50: 1000 to 10000 nM for the first, under 1000 nM for the second. The second is the more potent here.

Compared with N#CN1CC[C@H](C(=O)Nc2ccc(-c3ccccc3)cn2)C1 [Example 54, (S)-1-cyano-N-(5-phenylpyridin-2-yl)pyrrolidine-3-carboxamide], N#CN1CC[C@@H](C(=O)Nc2ccc(-c3ccccc3)cn2)C1 [Example 71, (R)-1-cyano-N-(5-phenylpyridin-2-yl)pyrrolidine-3-carboxamide] is higher in IC50: 1000 to 10000 nM for the first, 10000 to 30000 nM for the second.

First: N#CN1CC[C@H](C(=O)Nc2cccc(-c3ccccc3)n2)C1 [Example 55, (S)-1-cyano-N-(6-phenylpyridin-2-yl)pyrrolidine 3-carboxamide]
Second: N#CN1CC[C@H](C(=O)Nc2ncc(Cc3ccccc3)s2)C1 [Example 57, (S)-N-(5-benzylthiazol-2-yl)-1-cyanopyrrolidine-3-carboxamide]
The IC50 of the first is higher: 1000 to 10000 nM for the first, under 1000 nM for the second. The second is the more potent here.

N#CN1CC[C@H](C(=O)Nc2ncc(C3CCOCC3)s2)C1 [Example 59, (S)-1-cyano-N-(5-(tetrahydro-2H-pyran-4-yl)thiazol-2-yl)pyrrolidine-3-carboxamide] and C[C@H]1[C@@H](C(=O)Nc2ncc(C3CCOCC3)s2)CCN1C#N [Example 76, (2S,3S)-1-cyano-2-methyl-N-(5-(tetrahydro-2H-pyran-4-yl)thiazol-2-yl)pyrrolidine-3-carboxamide] cannot be ordered by IC50: under 1000 nM for the first, under 1000 nM for the second.

Compared with COC1CCN(c2ccc(NC(=O)[C@H]3CCN(C#N)C3)nc2)CC1 [Example 61, (S)-1-cyano-N-(5-(4-methoxy-piperidin-1-yl)pyridin-2-yl)pyrrolidine-3-carboxamide], N#CN1CC[C@H](C(=O)Nc2ncc(-c3ccncc3)s2)C1 [Example 69, (S)-1-cyano-N-(5-(pyridin-4-yl)thiazol-2-yl)pyrrolidine-3-carboxamide] is lower in IC50: 1000 to 10000 nM for the first, under 1000 nM for the second.

N#CN1CC[C@H](C(=O)Nc2nc3ccc(-n4nccn4)cc3s2)C1 [Example 63, (S)-N-(6-(2H-1,2,3-triazol-2-yl)benzo[d]thiazol-2-yl)-1-cyano-pyrrolidine-3-carboxamide] and N#CN1CC[C@H](C(=O)Nc2ncc(-c3ccccn3)s2)C1 [Example 70, (S)-1-cyano-N-(5-(pyridin-2-yl)thiazol-2-yl)pyrrolidine-3-carboxamide] fall in the same range of IC50: 1000 to 10000 nM for the first, 1000 to 10000 nM for the second.

CNC(=O)c1ccc(-c2cnc(NC(=O)[C@H]3CCN(C#N)C3)s2)cc1 [Example 64, (S)-1-cyano-N-(5-(4-(methyl-carbamoyl)phenyl)thiazol-2-yl)pyrrolidine-3-carboxamide] and N#CN1CC[C@H](C(=O)Nc2ncc(-c3ccc(F)cc3)s2)C1 [Example 66, (S)-1-cyano-N-(5-(4-fluorophenyl)thiazol-2-yl)pyrrolidine-3-carboxamide] cannot be ordered by IC50: under 1000 nM for the first, under 1000 nM for the second.

Cc1nc(NC(=O)[C@H]2CCN(C#N)C2)sc1CN1CCOCC1 [Example 65, (S)-1-cyano-N-(4-methyl-5-(morpholinomethyl)thiazol-2-yl)pyrrolidine-3-carboxamide] and N#CN1CC[C@H](C(=O)Nc2ncc(-c3ccc(F)c(F)c3)s2)C1 [Example 67, (S)-1-cyano-N-(5-(3,4-difluorophenyl)thiazol-2-yl)pyrrolidine-3-carboxamide] cannot be ordered by IC50: under 1000 nM for the first, under 1000 nM for the second.

N#CN1CC[C@H](C(=O)Nc2ncc(-c3ccc(C(F)(F)F)cc3)s2)C1 [Example 68, (S)-1-cyano-N-(5-(4-(trifluoromethyl)phenyl)thiazol-2-yl)pyrrolidine-3-carboxamide] and C[C@H]1[C@@H](C(=O)Nc2ncc(-c3ccc(F)cc3)s2)CCN1C#N [Example 73, (2S,3S)-1-cyano-N-(5-(4-fluorophenyl)thiazol-2-yl)-2-methylpyrrolidine-3-carboxamide] cannot be ordered by IC50: under 1000 nM for the first, under 1000 nM for the second.

First: C[C@H]1[C@@H](C(=O)Nc2ncc(-c3ccccc3)s2)CCN1C#N [Example 72, (2S,3S)-1-cyano-2-methyl-N-(5-phenylthiazol-2-yl)pyrrolidine-3-carboxamide]
Second: C[C@H]1[C@@H](C(=O)Nc2ncc(-c3ccccc3Cl)s2)CCN1C#N [Example 77, (2S,3S)—N-(5-(2-chlorophenyl)thiazol-2-yl)-1-cyano-2-methylpyrrolidine-3-carboxamide]
The IC50 of the first is lower: under 1000 nM for the first, 1000 to 10000 nM for the second. The first is the more potent here.

C[C@H]1[C@@H](C(=O)Nc2cn(-c3ccccc3)cn2)CCN1C#N [Example 74, (2S,3S)-1-cyano-2-methyl-N-(1-phenyl-1H-imidazol-4-yl)pyrrolidine-3-carboxamide] and C[C@H]1[C@@H](C(=O)Nc2cc(-c3ccccc3)[nH]n2)CCN1C#N [Example 75, (2S,3S)-1-cyano-2-methyl-N-(5-phenyl-1H-pyrazol-3-yl)pyrrolidine-3-carboxamide] cannot be ordered by IC50: under 1000 nM for the first, under 1000 nM for the second.

Compared with CC1(C(=O)Nc2ncc(-c3ccccc3)s2)CCN(C#N)C1 (stereo not shown) [Example 78, 1-cyano-3-methyl-N-(5-phenylthiazol-2-yl)pyrrolidine-3-carboxamide], COCC1(C(=O)Nc2ncc(-c3ccccc3)s2)CCN(C#N)C1 (stereo not shown) [Example 80, I-cyano-3-(methoxymethyl)-N-(5-phenylthiazol-2-yl)pyrrolidine-3-carboxamide] is higher in IC50: 1000 to 10000 nM for the first, 10000 to 30000 nM for the second. The first is the more potent here.

Compared with CC1(C(=O)Nc2cn(-c3ccccc3)cn2)CCN(C#N)C1 (stereo not shown) [Example 79, 1-cyano-3-methyl-N-(1-phenyl-1H-imidazol-4-yl)pyrrolidine-3-carboxamide], N#CN1CCC(C#N)(C(=O)Nc2ncc(-c3ccccc3)s2)C1 (stereo not shown) [Example 81, 1,3-dicyano-N-(5-phenylthiazol-2-yl)pyrrolidine-3-carboxamide] is lower in IC50: 10000 to 30000 nM for the first, 1000 to 10000 nM for the second.

First: C[C@@H]1CN(C#N)C[C@H]1C(=O)Nc1ncc(-c2ccccc2)s1 [Example 82, (3S,4S)-1-cyano-4-methyl-N-(5-phenylthiazol-2-yl)pyrrolidine-3-carboxamide]
Second: Cc1cnc(NC(=O)[C@@H]2CN(C#N)C[C@H]2C)s1 [Example 83, (3S,4S)-1-cyano-4-methyl-N-(5-methylthiazol-2-yl)pyrrolidine-3-carboxamide]
The IC50 of the first is lower: under 1000 nM for the first, 1000 to 10000 nM for the second. The first is the more potent here.
